Measured values reported in publication PMC6679700 (International Journal of Nanomedicine, 2019).

Tests used:
[1] = Solubility of FK506 in water, MCE and MCE ME; format: physicochemical; conditions: menthol/camphor eutectic, ratio 3/1 (w/w)
[2] = cited from earlier work
TRPM8 = conditions: skin; cited from earlier work

Solubility of FK506 in MCE [1]	SMILES	Aqueous solubility [2]	Duration of cool sensation (TRPM8)
136 mg/mL	C=CC[C@@H]1/C=C(\C)C[C@H](C)C[C@H](OC)[C@H]2O[C@@](O)(C(=O)C(=O)N3CCCC[C@H]3C(=O)O[C@H](/C(C)=C/[C@@H]3CC[C@@H](O)[C@H](OC)C3)[C@H](C)[C@@H](O)CC1=O)[C@H](C)C[C@@H]2OC [FK506, Tacrolimus]	0.004 to 0.012 mg/mL	–
–	CC1CCC(C(C)C)C(O)C1 (stereo not drawn) [Menthol, menthol]	–	up to 70 mins
